From patent publication US4673668A, “Aminonaphthacene derivatives” (Sumitomo Pharmaceuticals Company, priority 1982, dated 1987)
Several values for one entry are separate records, joined by “and”; a condition that tells them apart may be missing. Equal entries are not always repeated. Structures can show the parent of a compound that is named as a salt. Where two headings read alike, the source gives them in different places.

How the values were obtained:
[1] = tested on: P388 mouse leukemia cells; experiment: Effect against P388 mouse leukemia cell (in vitro test); type: cell-based
Protocol: (1) Effect against P388 mouse leukemia cell (in vitro test)
P388 leukemia cells have been subcultured in abdominal cavity of DBA/2 mouse. […] A suspension of 5×10^4 cells/ml containing a test compound is prepared and is cultured in a wet atmosphere containing 5% CO2 at 37° C. for 48 hours.
Number of cells before and after culturing is counted by coulter counter. Proliferative ratio is defined as ratio of the increase in cells after proliferation for 48 hours to an increase in cells cultured in a suspension containing no test compound. Inhibition ratio (IR) is defined as follows: […]
1--(proliferative ratio).
In other words, [formula] where C^treated : number of cells after culturing for 48 hours in the presence of a treated compound
C^non : number of cells after culturing for 48 hours in the absence of a test compound
Co : number of cells when culturing is initiated.

[2] = tested on: P388 mouse leukemia cells; experiment: Effect against survival time of mouse transplanted with P388 mouse leukemia cells (in vivo test, intraperitoneal administration); set-up: species or system mouse (CDF1); conditions: intraperitoneally, first and fifth days
Source text: (2) Effect against survival time of mouse transplanted with P388 mouse leukemia cells (in vivo test, intraperitoneal administration)
(§1) Tumor: P388 mouse leukemia.
(§2) Animals: CDF1 (BALB/C×DBA/2) mouse .male.5 weeks breeding, one group: 6 mice.
(§3) Number of cells transplanted: 10^6 /mouse, intraperitoneal administration.
Dosage: Test compound administered twice, i.e. the first and fifth days, intraperitoneally. Test compound hardly soluble or insoluble in water is applied in a solution or a suspension form by use of Tween 80.
(§4) Evaluation: Increase life span (ILS) is calculated on the basis of median survival times (T) and (C) of treated groups and controls, repsctively: [formula] (3) Effect against survival times of mouse transplanted with P388 mouse leukemia cells (in vivo test; intravenous or per os administration)

[3] = tested on: P388 mouse leukemia cells; experiment: Effect against survival times of mouse transplanted with P388 mouse leukemia cells (in vivo test; intravenous); set-up: species or system mouse (CDF1); conditions: once, first day
Protocol: as §1, §2, §3, §4
(§5) Similar to (2), but a test compound administered once, i.e., only the first day, intravenously or orally.

[4] = tested on: P388 mouse leukemia cells; experiment: Effect against survival times of mouse transplanted with P388 mouse leukemia cells (in vivo test; per os administration); set-up: species or system mouse (CDF1); conditions: po, once, first day
Protocol: as §1, §2, §3, §4, §5

[5] = Toxicity test (maximum tolerated dose); conditions: mouse, in vivo; single application; BALB/C mice, ten a group; largest amount where no death is seen
Source text: The largest amount where no death of mice is seen is defined as maximum tolerated dose.

[6] = P388, 1 γ/ml, 48 hours, read-out: Inhibition ratio (IR)
[7] = P388, 10^-1 γ/ml, 48 hours, read-out: Inhibition ratio (IR)
[8] = P388, 10 γ/ml, 48 hours, read-out: Inhibition ratio (IR)
[9] = P388, 48 h, read-out: Inhibition ratio (IR), 1 γ/ml
[10] = P388, 48 h, read-out: Inhibition ratio (IR), 10^-1 γ/ml
[11] = P388, 48 h, read-out: Inhibition ratio (IR), 10 γ/ml

SMILES: CC(=O)[C@]1(N)Cc2c(O)c3c(c(O)c2[C@@H](OC2CCCCO2)C1)C(=O)c1ccccc1C3=O (single isomer, unassigned) [Example 10-A, 7-0-tetrahydropyranyl-9α-amino-9β-acetyl-7,8,9,10-tetrahydro-6,7α,11-trihydroxy-5,12-naphthacenedione]
- inhibition at 1 µg/mL [1, 6]: 94.4%
- inhibition at 0.1 µg/mL [1, 7]: 94.6%
- inhibition at 10 µg/mL [1, 8]: 89%
- Increase life span (ILS) ([2]; 6.25 mg/kg): 25%
- Increase life span (ILS) ([2]; 12.5 mg/kg): 77%
- Increase life span (ILS) ([2]; 25 mg/kg): 286%

SMILES: CC(=O)[C@]1(N)Cc2c(O)c3c(c(O)c2[C@@H](O[C@H]2C[C@H](O)[C@H](O)[C@H](C)O2)C1)C(=O)c1ccccc1C3=O [Example 2, d-7α-[(2,6-dideoxy-α-L-lyxo-lexopyranosyl)oxy]-9α-amino-9β-acetyl-7,8,9,10-tetrahydro-6,11-dihydroxy-5,12-naphthacenedione]
- inhibition at 1 µg/mL [1, 6]: 84.5%
- inhibition at 0.1 µg/mL [1, 7]: 44.1%
- inhibition at 10 µg/mL [1, 8]: 89.9%
- Increase life span (ILS) ([2]; 6.25 mg/kg): 135%

SMILES: CC(=O)[C@]1(N)Cc2c(O)c3c(c(O)c2[C@@H](O[C@H]2C[C@H](O)[C@H](O)CO2)C1)C(=O)c1ccccc1C3=O [12 (hydrochloride), d-7α-[(2-deoxy-β-D-erythro-pentapyranosyl)oxy]-9αamino-9β-acetyl-7,8,9,10-tetrahydro-6,11-dihydroxy-5,12-naphthacenedione]
- inhibition at 1 µg/mL [1, 9]: 83.8%
- inhibition at 0.1 µg/mL [1, 10]: 27.5%
- inhibition at 10 µg/mL [1, 11]: 85%
- ILS ([3]; 10 mg/kg): 32%
- ILS ([3]; 20 mg/kg): 60%
- ILS ([3]; 40 mg/kg): -43%
- Toxic Death ([3]; 40 mg/kg): 6/6
- ILS ([4]; 17.5 mg/kg): 31%
- ILS ([4]; 35 mg/kg): 50%
- ILS ([4]; 70 mg/kg): 86%
- MTD [5]: 32 mg/kg

SMILES: CC(O)[C@]1(N)Cc2c(O)c3c(c(O)c2[C@@H](OC2CCCCO2)C1)C(=O)c1ccccc1C3=O (stereo partly drawn) [Example 29, 7-0-tetrahydropyranyl-9α-amino-9β-(1-hydroxyethyl)-7,8,9,10-tetrahydro-6,7α,11-trihydroxy-5,12-naphthacenedione]
- inhibition at 1 µg/mL [1, 6]: 92.9%
- inhibition at 0.1 µg/mL [1, 7]: 93.5%
- inhibition at 0.01 µg/mL ([1]; P388, 10^-2 γ/ml, 48 hours, read-out: Inhibition ratio (IR)): 40.1%
- inhibition at 10 µg/mL [1, 8]: 94.1%
- Increase life span (ILS) ([2]; 3.13 mg/kg): 66%
- Increase life span (ILS) ([2]; 6.25 mg/kg): 126%

SMILES: CC(=O)O[C@H]1C[C@H](O[C@H]2C[C@](N)(C(C)=O)Cc3c(O)c4c(c(O)c32)C(=O)c2ccccc2C4=O)OC[C@H]1OC(C)=O [11 (hydrochloride), d-7α-[(2-deoxy-3,4-di-0-acetyl-β-D-erythro-pentapyranosyl)oxy]-9α-amino-9β-acetyl-7,8,9,10-tetrahydro-6,11-dihydroxy-5,12-naphthacenedione]
- inhibition at 1 µg/mL [1, 6]: 97.9%
- inhibition at 0.1 µg/mL [1, 7]: 1.9%
- inhibition at 10 µg/mL [1, 8]: 100%
- Increase life span (ILS) ([2]; 6.25 mg/kg): 37%
- Increase life span (ILS) ([2]; 12.5 mg/kg): 123%
- Increase life span (ILS) ([2]; 25 mg/kg): 280%
- ILS ([3]; 10 mg/kg): 35%
- ILS ([3]; 20 mg/kg): 67%
- ILS ([3]; 40 mg/kg): -45%
- Toxic Death ([3]; 40 mg/kg): 6/6
- ILS ([4]; 17.5 mg/kg): 40%
- ILS ([4]; 35 mg/kg): 63%
- ILS ([4]; 70 mg/kg): -42%
- Toxic Death ([4]; 70 mg/kg): 6/6
- MTD [5]: 40 mg/kg

SMILES: CC[C@@]1(O)C[C@H](O[C@H]2C[C@H](N(C)C)[C@H](O[C@H]3C[C@H](O)[C@H](O[C@H]4CCC(=O)[C@H](C)O4)[C@H](C)O3)[C@H](C)O2)c2c(cc3c(c2O)C(=O)c2c(O)cccc2C3=O)[C@H]1C(=O)OC [ACM-A, AclacinomycinA, reference compound]
- ILS ([4]; 10.7 mg/kg): 11%
- ILS ([4]; 21.5 mg/kg): 25%
- ILS ([4]; 43 mg/kg): 37%

SMILES: COc1cccc2c1C(=O)c1c(O)c3c(c(O)c1C2=O)C[C@@](O)(C(=O)CO)C[C@@H]3O[C@H]1C[C@H](N)[C@H](O)[C@H](C)O1 [ADR, Adriamycin, reference compound]
- inhibition at 1 µg/mL [1, 9]: 85.9%
- inhibition at 0.1 µg/mL [1, 10]: 85%
- inhibition at 0.01 µg/mL ([1]; P388, 48 h, read-out: Inhibition ratio (IR), 10^-2 γ/ml): 69.2%
- inhibition at 10 µg/mL [1, 11]: 90.6%
- Increase life span (ILS) ([2]; 1 mg/kg, positive control): 58% and 78% and 57%
- Increase life span (ILS) ([2]; 2 mg/kg, positive control): 90% and 84%
- Increase life span (ILS) ([2]; 4 mg/kg, positive control): 133%
- ILS ([3]; 3.75 mg/kg): 21%
- ILS ([3]; 7.5 mg/kg): 47%
- ILS ([3]; 15 mg/kg): 83%
- MTD [5]: 12.5 mg/kg

SMILES: CC(=O)[C@]1(N)Cc2c(O)c3c(c(O)c2[C@@H](O[C@H]2C[C@H](N)[C@H](O)[C@H](C)O2)C1)C(=O)c1c(O)cccc1C3=O [Example 25 (dihydrochloride), d-7α-[(2,3,6-trideoxy-3-amino-α-L-lyxo-hexopyranosyl)oxy]-9α-amino-9β-acetyl-4,6,11-trihydroxy-7,8,9,10-tetrahydro-5,12-naphthacenedione]
- inhibition at 1 µg/mL [1, 6]: 95.7%
- inhibition at 0.1 µg/mL [1, 7]: 89%
- inhibition at 10 µg/mL [1, 8]: 99.4%

SMILES: CC(=O)O[C@@H]1[C@H](C)O[C@@H](O[C@H]2C[C@](N)(C(C)=O)Cc3c(O)c4c(c(O)c32)C(=O)c2ccccc2C4=O)C[C@@H]1OC(C)=O [Example 1, d-7α-[(3,4-di-0-acetyl-2,6-dideoxy-α-L-lyxo-hexopyranosyl)oxy]-9α-amino-9β-acetyl-7,8,9,10-tetrahydro-6,11-dihydroxy-5,12-naphthacenedione]
- inhibition at 1 µg/mL [1, 6]: 84.1%
- inhibition at 0.1 µg/mL [1, 7]: 32.4%
- inhibition at 10 µg/mL [1, 8]: 82.7%
- Increase life span (ILS) ([2]; 6.25 mg/kg): 42%
- Increase life span (ILS) ([2]; 12.5 mg/kg): 86%
- Increase life span (ILS) ([2]; 25 mg/kg): 152%
